Data set [1] has as its system Candida albicans. Description: Photodynamic antifungal activity against Candida albicans assessed as fungal eradication preincubated for 20 mins in dark condition followed by 18 J/cm2 LED light irradiation and measured after 18 hrs by broth microdilution method. The format is functional. The following applies: light or radiation study, 18.33 h, time 1100 min. A general note: Broth dilution looks for growth in wells or tubes with falling amounts of substance.

Data set [2] relates to Escherichia coli. Description: Binding affinity to Escherichia coli cell wall assessed as bound fraction at 25 uM measured after 3 to 10 mins. The following applies: time 3-10 min.
For data set [3], the system named is Cell membrane. Nature of the data set: Binding affinity to Escherichia coli cell membrane assessed as reduction in zeta potential by zetasizer-based analysis. The format is subcellular.
The test system of data set [4] is Staphylococcus aureus. Nature of the data set: Binding affinity to Staphylococcus aureus cell wall assessed as bound fraction at 25 uM measured after 3 to 10 mins. The following applies: time 3-10 min.
For data set [5], the system named is Escherichia coli. Nature of the data set: Photodynamic antibacterial activity against Escherichia coli assessed as bacterial eradication preincubated for 20 mins in dark condition followed by 18 J/cm2 LED light irradiation and measured after 18 hrs by broth microdilution method. The following applies: light or radiation study, 18.33 h, time 1100 min. The format is functional.

Data set [6] has as its system Staphylococcus aureus. Nature of the data set: Antibacterial activity against methicillin resistant Staphylococcus aureus up to 80 uM by broth microdilution method. It counts as functional, organism-based. The following applies: dose microM <=80.
Data set [7] relates to Escherichia coli. Description: Binding affinity to Escherichia coli cell wall at 50 uM preincubated with 12.5 to 50 mM Ca2+ for 30 mins followed by incubation with compound for 30 mins.
Data set [8] in a line: Induction of singlet oxygen generation in DPBF solution assessed as singlet oxygen quantum yield irradiated with 80 mW/cm2 light by DPBF-based assay. The format is functional.
Data set [9] concerns Staphylococcus aureus. Description: Binding affinity to Staphylococcus aureus cell wall at 50 uM preincubated with 12.5 to 50 mM Ca2+ for 30 mins followed by incubation with compound for 30 mins.
Data set [10] has as its system Escherichia coli. Nature of the data set: Antibacterial activity against Escherichia coli up to 80 uM by broth microdilution method. The format is functional, organism-based. The following applies: dose microM <=80.
For data set [11], the system named is Staphylococcus aureus. Nature of the data set: Photodynamic antibacterial activity against Staphylococcus aureus assessed as bacterial eradication preincubated for 20 mins in dark condition followed by 18 J/cm2 LED light irradiation and measured after 18 hrs by broth microdilution method. The format is functional. The following applies: light or radiation study, 18.33 h, time 1100 min.

Data set [12] deals with Candida albicans. Nature of the data set: Binding affinity to Candida albicans cell wall assessed as bound fraction at 25 uM measured after 3 to 10 mins. The following applies: time 3-10 min.
Data set [13] deals with Candida albicans. Description: Antifungal activity against Candida albicans up to 80 uM by broth microdilution method. The following applies: dose microM <=80. The format is functional, organism-based.
For data set [14], the system named is Candida albicans. Nature of the data set: Binding affinity to Candida albicans cell wall at 50 uM preincubated with 12.5 to 50 mM Ca2+ for 30 mins followed by incubation with compound for 30 mins.
Data set [15] has as its system Staphylococcus aureus. Description: Antibacterial activity against Staphylococcus aureus up to 80 uM by broth microdilution method. It counts as functional, organism-based. The following applies: dose microM <=80.
Data set [16] relates to Staphylococcus aureus. Description: Photodynamic antibacterial activity against methicillin resistant Staphylococcus aureus assessed as bacterial eradication preincubated for 20 mins in dark condition followed by 18 J/cm2 LED light irradiation and measured after 18 hrs by broth microdilution method. The format is functional. The following applies: light or radiation study, 18.33 h, time 1100 min.

Data set [17] concerns Cell membrane. Nature of the data set: Binding affinity to Staphylococcus aureus cell membrane assessed as reduction in zeta potential by zetasizer-based analysis. The format is subcellular.
Data set [18] can be described thus: Octanol-water partition coefficient, logP of compound incubated for 24 hrs under shaking condition. It counts as physicochemical.
Data set [19] is described as follows: Drug localization in peripheral edge of Escherichia coli at 10 uM incubated for 30 mins by fluorescent dye based confocal microscopic analysis. It counts as ADME. The following applies: 0.5 h.
In data set [20] the test system is Cell membrane. Nature of the data set: Disruption of cell membrane integrity in Escherichia coli at 2 uM irradiated with 6J/cm2 light followed by compound exposure for 10 mins by FL-4L/propidium iodide Live/dead staining based laser confocal microscopic analysis.
Data set [21] deals with Candida albicans. Description: Disruption of cell membrane integrity in Candida albicans at 2 uM irradiated with 6J/cm2 light followed by compound exposure for 10 mins by FL-4L/propidium iodide Live/dead staining based laser confocal microscopic analysis.
The test system of data set [22] is Cell membrane. Description: Disruption of cell membrane integrity in Staphylococcus aureus at 2 uM irradiated with 6J/cm2 light followed by compound exposure for 10 mins by FL-4L/propidium iodide Live/dead staining based laser confocal microscopic analysis.

Activity calls are given as the source filed them. No cut-off for these calls is given here.

For orientation: MIC means the least concentration at which growth counts as inhibited. The term logP denotes a log measure of how a compound divides between an organic and an aqueous phase. Low readings indicate lower lipophilicity, high ones higher lipophilicity.

As to `CC1=C(I)C(C)=[N+]2C1=Cc1c(C)c(I)c(C)n1[B-]2(OCCC[N+](C)(C)C)OCCC[N+](C)(C)C`, the MIC in [1] turned out to be 40 µM; in [5], 40 µM; in data set [11] it was 30 µM; in data set [16], 20 µM. Moreover, the Activity was 38.9% in [2], 51.8% in data set [4], 0.68 in data set [8] and 53.6% in [12]. Also, the outcome in [3] and in data set [17] was Active. Also, the result in [6], in data set [7], in data set [9], in data set [10], in [13] and in data set [14] was inactive. Further, the result in [15] was inactive. For the same compound, the logP at 24 h in data set [18] was -1.01.

In the case of `CC1=C(I)C(C)=[N+]2C1=Cc1c(C)c(I)c(C)n1[B-]2(OCc1cc[n+](C)cc1)OCc1cc[n+](C)cc1`, the MIC in [1] worked out at 40 µM; in data set [5], 25 µM; in data set [11], 50 µM; in data set [16] it was 40 µM. The result in [6], in data set [10], in data set [13] and in [15] was inactive. In addition, the Activity in data set [8] was found to be 0.59. The compound further had a logP at 24 h in [18] of -1.21.

For the compound `CC1=CC(C)=[N+]2C1=Cc1c(C)cc(C)n1[B-]2(OCCC[N+](C)(C)C)OCCC[N+](C)(C)C.[I-].[I-]`, the Drug uptake result in data set [19] is given as “Active”. Moreover, in [18], the logP at 24 h was -1.17.

For `CC[N+](C)(CC)CCO[B-]1(OCC[N+](C)(CC)CC)n2c(C)c(I)c(C)c2C=C2C(C)=C(I)C(C)=[N+]21`, the MIC in data set [1] is 40 µM; in [5], 40 µM; in data set [11] it was 30 µM; in data set [16], 40 µM. Moreover, the outcome in [6], in [10], in data set [13] and in data set [15] was inactive. The Activity in data set [8] turned out to be 0.65. In data set [18], this compound had a logP at 24 h of -1.36.

With `CC1=C(I)C(C)=[N+]2C1=Cc1c(C)c(I)c(C)n1[B-]2(OCCc1cc[n+](C)cc1)OCCc1cc[n+](C)cc1`, the result in data set [20], in data set [3] and in [17] was Active. For the same compound, the MIC was 40 µM in [1], 0.625 µM in data set [5], 20 µM in [11] and 20 µM in [16]. The Activity in [2] was determined as 51.9%; in [4], 55%; in [8] it was 0.74; in data set [12] it was 34%. The result in data set [6], in [7], in data set [9], in [21], in data set [10] and in data set [13] was inactive. The result in [14], in data set [15] and in data set [22] was inactive. Besides, in [18], the log partition coefficient (logP) at 24 h was -1.14.

In the case of `CC1=C(I)C(C)=[N+]2C1=Cc1c(C)c(I)c(C)n1[B-]2(C#Cc1ccc[n+](C)c1)C#Cc1ccc[n+](C)c1`, the minimum inhibitory concentration (MIC) in data set [1] stood at 0.625 µM; in data set [5], 1.25 µM; in data set [11] it was 1.25 µM; in [16], 0.625 µM. Besides, the result in [6], in data set [10], in data set [13] and in data set [15] was inactive. The Activity in data set [8] turned out to be 0.65. This compound also gave a logP at 24 h in data set [18] of -0.27.

With `CC1=C(I)C(C)=[N+]2C1=Cc1c(C)c(I)c(C)n1[B-]2(Oc1cc[n+](C)cc1)Oc1cc[n+](C)cc1`, the MIC stood at 40 µM in [1], 25 µM in [5], 25 µM in data set [11] and 40 µM in [16]. The result in data set [6], in data set [10], in data set [13] and in [15] was inactive. Moreover, the Activity in [8] stood at 0.61. In addition, the logP at 24 h in data set [18] is -0.93.

In the case of `CC1=C(I)C(C)=[N+]2C1=Cc1c(C)c(I)c(C)n1[B-]2(OCCCc1cc[n+](C)cc1)OCCCc1cc[n+](C)cc1`, the MIC in [1] stood at 5 µM; in data set [5], 1.25 µM; in data set [11], 1.25 µM; in [16], 1.25 µM. Besides, the outcome in [6], in data set [10], in data set [13] and in [15] was inactive. The Activity in data set [8] is 0.74. In data set [18], this compound displayed a logP at 24 h of -0.91.

Take `CC1=C(I)C(C)=[N+]2C1=Cc1c(C)c(I)c(C)n1[B-]2(OCC[N+](C)(C)C)OCC[N+](C)(C)C`: the MIC in data set [1] worked out at 40 µM; in [5] it was 40 µM; in data set [11], 30 µM; in data set [16], 20 µM. Further, the outcome in [6], in [10], in [13] and in [15] was inactive. For the same compound, the Activity in [8] came to 0.58. The compound also registered a logP at 24 h in [18] of -1.21.

Turning to `CC[N+](C)(CC)CCCO[B-]1(OCCC[N+](C)(CC)CC)n2c(C)c(I)c(C)c2C=C2C(C)=C(I)C(C)=[N+]21`, the MIC in data set [1] amounted to 40 µM; in data set [5] it was 40 µM; in data set [11] it was 20 µM; in data set [16], 20 µM. For the same compound, the result in data set [6], in [10], in data set [13] and in data set [15] was inactive. Moreover, the Activity in [8] is 0.75. This compound also returned a logP at 24 h in [18] of -0.93.

Regarding `CC1=C(I)C(C)=[N+]2C1=Cc1c(C)c(I)c(C)n1[B-]2(C#Cc1cc[n+](C)cc1)C#Cc1cc[n+](C)cc1`, the minimum inhibitory concentration (MIC) came to 0.625 µM in data set [1], 1.25 µM in [5], 1.25 µM in data set [11] and 0.625 µM in data set [16]. For the same compound, the result in data set [6], in [10], in [13] and in data set [15] was inactive. Moreover, in data set [8], the Activity stood at 0.54. In data set [18], this compound returned a logP at 24 h of -0.63.

As for `CC1=C(I)C(C)=[N+]2C1=Cc1c(C)c(I)c(C)n1[B-]2(OCCCCc1cc[n+](C)cc1)OCCCCc1cc[n+](C)cc1`, the MIC in data set [1] worked out at 5 µM; in data set [5] it was 0.625 µM; in data set [11], 1.25 µM; in [16], 1.25 µM. The outcome in data set [6], in [10], in data set [13] and in data set [15] was inactive. Besides, in [8], the Activity turned out to be 0.77. In data set [18], this compound came in with a logP at 24 h of -0.74.
